This note sets out measurements from PMC10174618, “Monoterpenoid aryl hydrocarbon receptor allosteric antagonists protect against ultraviolet skin damage in female mice” (Nature Communications, 2023).

Holding throughout (test): biochemical
Common to all, as to parameters: KINOMEscan scanMAX active site-directed competition binding assay, percent of control, 468 kinases
Holding throughout (details): competition binding, percent of control

One assay deals with TLK1 (Homo sapiens, UniProt Q9UKI8). The procedure, abridged:
(§1)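 KINOMEscan active site-directed competition binding assay against 468 human kinases with 100 μM S-carvone. Binding expressed as % of control, with 35% of control as the inhibition threshold.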

For a further assay, the target named is MAST1 (Homo sapiens, UniProt Q9Y2H9). The procedure, abridged:
as §1

Another assay addresses FGFR3 (Homo sapiens, UniProt P22607). The procedure, abridged: as §1
A further assay addresses EGFR(T790M) (Homo sapiens, UniProt P00533, T790M). An outline of the steps:
as §1

The target of the next assay is CAMK1D (Homo sapiens, UniProt Q8IU85). The procedure, abridged:
as §1

The next assay deals with ACVR2B (Homo sapiens, UniProt Q13705). An outline of the steps:
as §1

Another assay concerns the target ULK1 (Homo sapiens, UniProt O75385). An outline of the steps:
as §1

For another assay, the target named is STK39 (Homo sapiens, UniProt Q9UEW8). An outline of the steps:
as §1

Another assay addresses ACVR1 (Homo sapiens, UniProt Q04771). An outline of the steps:
as §1

The target in the next assay is SGK2 (Homo sapiens, UniProt Q9HBY8). The procedure, abridged: as §1
For a further assay, the target named is T1, PIP5K2C (Homo sapiens, UniProt Q8TBX8).
T1 construct: gene PIP4K2C
An outline of the steps:
as §1

A further assay concerns the target CLK2 (Homo sapiens, UniProt P49760). The procedure, abridged:
as §1

Assay [1] deals with T2, ABL1(E255K)-phosphorylated (Homo sapiens, UniProt P00519, E255K).
T2 construct: phosphorylated
An outline of the steps:
as §1

Another assay concerns the target EPHB3 (Homo sapiens, UniProt P54753). The procedure, abridged: as §1
The target in a further assay is T3, LKB1 (Homo sapiens, UniProt Q15831).
T3 construct: gene STK11
An outline of the steps:
as §1

In another assay the target is T4, MINK (Homo sapiens, UniProt Q8N4C8).
T4 construct: gene MINK1
An outline of the steps: as §1

Assay [2] deals with T5, RPS6KA5(Kin.Dom.1-N-terminal) (Homo sapiens, UniProt O75582).
T5 construct: Kin.Dom.1-N-terminal
An outline of the steps: as §1

The target of another assay is CDK4 (Homo sapiens, UniProt P11802). The procedure, abridged: as §1
For another assay, the target named is KIT(D816H) (Homo sapiens, UniProt P10721, D816H). The procedure, abridged: as §1
For assay [3], the target named is T6, ABL1(H396P)-phosphorylated (Homo sapiens, UniProt P00519, H396P).
T6 construct: phosphorylated
The procedure, abridged:
as §1

For a further assay, the target named is T7, MLCK (Homo sapiens, UniProt Q32MK0).
T7 construct: gene MYLK3
The procedure, abridged: as §1

T7 sequence (Q32MK0 whole entry): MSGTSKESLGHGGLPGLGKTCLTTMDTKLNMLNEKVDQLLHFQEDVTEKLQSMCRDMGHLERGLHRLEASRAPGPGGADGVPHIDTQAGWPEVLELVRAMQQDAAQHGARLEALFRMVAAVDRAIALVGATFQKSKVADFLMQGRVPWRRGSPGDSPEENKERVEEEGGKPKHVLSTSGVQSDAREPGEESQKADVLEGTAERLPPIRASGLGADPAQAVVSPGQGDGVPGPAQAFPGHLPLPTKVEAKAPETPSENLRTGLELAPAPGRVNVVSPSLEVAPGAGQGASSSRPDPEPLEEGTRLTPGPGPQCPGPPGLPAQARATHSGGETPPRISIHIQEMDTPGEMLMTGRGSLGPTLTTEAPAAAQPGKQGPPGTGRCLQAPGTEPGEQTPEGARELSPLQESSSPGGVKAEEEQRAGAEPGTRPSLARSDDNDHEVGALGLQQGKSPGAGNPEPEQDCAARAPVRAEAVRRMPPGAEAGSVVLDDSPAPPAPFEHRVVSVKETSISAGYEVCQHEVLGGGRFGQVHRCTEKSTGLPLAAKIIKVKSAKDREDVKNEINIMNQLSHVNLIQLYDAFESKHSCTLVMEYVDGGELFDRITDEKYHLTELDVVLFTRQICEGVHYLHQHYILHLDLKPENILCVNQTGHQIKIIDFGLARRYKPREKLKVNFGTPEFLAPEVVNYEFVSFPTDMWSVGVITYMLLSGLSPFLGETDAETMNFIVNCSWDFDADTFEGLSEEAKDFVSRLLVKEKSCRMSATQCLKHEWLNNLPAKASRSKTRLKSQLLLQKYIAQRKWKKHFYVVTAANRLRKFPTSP
EPHB3, sequence (P54753 whole entry): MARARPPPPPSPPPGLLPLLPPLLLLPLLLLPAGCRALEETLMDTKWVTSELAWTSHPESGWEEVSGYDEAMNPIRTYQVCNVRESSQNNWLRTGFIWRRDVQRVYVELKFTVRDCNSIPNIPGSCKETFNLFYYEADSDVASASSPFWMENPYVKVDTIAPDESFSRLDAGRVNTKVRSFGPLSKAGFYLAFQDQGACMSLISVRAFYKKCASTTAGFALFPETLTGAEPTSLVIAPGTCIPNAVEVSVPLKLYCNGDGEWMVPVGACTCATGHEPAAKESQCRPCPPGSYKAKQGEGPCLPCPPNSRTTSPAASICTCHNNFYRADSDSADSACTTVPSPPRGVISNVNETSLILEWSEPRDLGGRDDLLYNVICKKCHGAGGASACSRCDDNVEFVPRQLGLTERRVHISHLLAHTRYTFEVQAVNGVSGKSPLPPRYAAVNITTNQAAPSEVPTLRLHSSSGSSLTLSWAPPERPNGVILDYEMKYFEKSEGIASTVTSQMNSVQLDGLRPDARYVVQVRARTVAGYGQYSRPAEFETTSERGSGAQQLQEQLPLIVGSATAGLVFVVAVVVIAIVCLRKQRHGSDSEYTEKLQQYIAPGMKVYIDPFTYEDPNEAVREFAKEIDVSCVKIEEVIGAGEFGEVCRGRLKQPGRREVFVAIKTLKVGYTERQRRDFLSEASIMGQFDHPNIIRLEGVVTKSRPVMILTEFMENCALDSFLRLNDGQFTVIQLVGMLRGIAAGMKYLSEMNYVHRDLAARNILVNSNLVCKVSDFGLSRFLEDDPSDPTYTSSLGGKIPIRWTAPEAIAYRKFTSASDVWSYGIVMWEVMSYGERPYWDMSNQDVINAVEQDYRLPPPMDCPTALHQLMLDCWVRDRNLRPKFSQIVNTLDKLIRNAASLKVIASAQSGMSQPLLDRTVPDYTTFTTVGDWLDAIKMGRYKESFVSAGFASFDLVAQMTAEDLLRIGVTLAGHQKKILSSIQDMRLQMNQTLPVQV
T1 sequence (Q8TBX8 whole entry): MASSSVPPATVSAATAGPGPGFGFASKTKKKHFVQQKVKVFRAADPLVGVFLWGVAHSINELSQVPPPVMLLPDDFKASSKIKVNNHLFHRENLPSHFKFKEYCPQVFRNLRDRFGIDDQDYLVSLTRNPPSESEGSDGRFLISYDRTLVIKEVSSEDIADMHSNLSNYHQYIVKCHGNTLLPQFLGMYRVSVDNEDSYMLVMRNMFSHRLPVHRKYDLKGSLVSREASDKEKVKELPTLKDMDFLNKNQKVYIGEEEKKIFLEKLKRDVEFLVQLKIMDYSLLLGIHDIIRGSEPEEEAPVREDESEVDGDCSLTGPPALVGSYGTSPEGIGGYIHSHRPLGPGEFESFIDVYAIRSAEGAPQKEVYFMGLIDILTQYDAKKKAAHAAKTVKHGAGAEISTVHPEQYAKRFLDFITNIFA
CDK4, sequence (P11802 whole entry): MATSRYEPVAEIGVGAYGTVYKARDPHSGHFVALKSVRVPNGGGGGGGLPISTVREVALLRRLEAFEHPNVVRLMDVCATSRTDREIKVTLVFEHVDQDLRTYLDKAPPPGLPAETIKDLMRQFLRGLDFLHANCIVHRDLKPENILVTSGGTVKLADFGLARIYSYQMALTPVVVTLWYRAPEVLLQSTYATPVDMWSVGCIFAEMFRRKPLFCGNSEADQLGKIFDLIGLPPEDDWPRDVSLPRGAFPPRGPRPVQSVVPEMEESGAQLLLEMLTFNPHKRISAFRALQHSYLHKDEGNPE
SGK2, sequence (Q9HBY8 whole entry): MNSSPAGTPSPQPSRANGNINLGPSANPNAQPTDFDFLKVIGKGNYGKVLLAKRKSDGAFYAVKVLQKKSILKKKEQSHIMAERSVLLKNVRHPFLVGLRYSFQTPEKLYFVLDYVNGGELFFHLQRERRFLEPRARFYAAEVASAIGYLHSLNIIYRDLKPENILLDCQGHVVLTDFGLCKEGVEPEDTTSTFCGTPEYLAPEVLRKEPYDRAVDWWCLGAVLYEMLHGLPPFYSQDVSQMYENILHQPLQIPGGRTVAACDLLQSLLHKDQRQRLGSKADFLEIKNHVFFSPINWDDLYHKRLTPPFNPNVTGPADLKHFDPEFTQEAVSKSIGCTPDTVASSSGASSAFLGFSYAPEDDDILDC
KIT(D816H), sequence (P10721 whole entry D816H): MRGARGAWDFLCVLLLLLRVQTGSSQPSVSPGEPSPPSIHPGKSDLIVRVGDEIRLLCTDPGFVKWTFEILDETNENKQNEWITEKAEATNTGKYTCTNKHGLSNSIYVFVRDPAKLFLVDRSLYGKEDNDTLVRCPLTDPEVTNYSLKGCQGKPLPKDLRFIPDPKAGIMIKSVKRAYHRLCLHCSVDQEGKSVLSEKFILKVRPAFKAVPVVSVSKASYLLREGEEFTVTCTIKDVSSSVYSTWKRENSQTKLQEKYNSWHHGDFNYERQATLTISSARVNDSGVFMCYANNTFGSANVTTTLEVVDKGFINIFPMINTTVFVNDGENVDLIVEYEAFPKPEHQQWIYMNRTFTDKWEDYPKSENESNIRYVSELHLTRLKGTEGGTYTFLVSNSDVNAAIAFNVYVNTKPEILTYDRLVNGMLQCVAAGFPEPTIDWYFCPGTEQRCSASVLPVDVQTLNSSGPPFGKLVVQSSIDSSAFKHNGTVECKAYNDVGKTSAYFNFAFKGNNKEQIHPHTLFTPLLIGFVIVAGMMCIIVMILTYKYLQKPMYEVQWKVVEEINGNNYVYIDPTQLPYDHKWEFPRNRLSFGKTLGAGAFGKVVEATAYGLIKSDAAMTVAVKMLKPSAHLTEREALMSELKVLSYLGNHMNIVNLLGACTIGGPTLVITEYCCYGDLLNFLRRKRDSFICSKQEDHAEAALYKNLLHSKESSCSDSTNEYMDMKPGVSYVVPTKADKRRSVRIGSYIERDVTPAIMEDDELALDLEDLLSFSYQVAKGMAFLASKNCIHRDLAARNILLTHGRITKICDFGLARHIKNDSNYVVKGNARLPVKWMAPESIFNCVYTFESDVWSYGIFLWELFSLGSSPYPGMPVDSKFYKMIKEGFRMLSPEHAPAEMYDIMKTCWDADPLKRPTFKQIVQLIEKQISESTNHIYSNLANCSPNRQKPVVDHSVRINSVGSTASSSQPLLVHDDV
T5 sequence (O75582 whole entry): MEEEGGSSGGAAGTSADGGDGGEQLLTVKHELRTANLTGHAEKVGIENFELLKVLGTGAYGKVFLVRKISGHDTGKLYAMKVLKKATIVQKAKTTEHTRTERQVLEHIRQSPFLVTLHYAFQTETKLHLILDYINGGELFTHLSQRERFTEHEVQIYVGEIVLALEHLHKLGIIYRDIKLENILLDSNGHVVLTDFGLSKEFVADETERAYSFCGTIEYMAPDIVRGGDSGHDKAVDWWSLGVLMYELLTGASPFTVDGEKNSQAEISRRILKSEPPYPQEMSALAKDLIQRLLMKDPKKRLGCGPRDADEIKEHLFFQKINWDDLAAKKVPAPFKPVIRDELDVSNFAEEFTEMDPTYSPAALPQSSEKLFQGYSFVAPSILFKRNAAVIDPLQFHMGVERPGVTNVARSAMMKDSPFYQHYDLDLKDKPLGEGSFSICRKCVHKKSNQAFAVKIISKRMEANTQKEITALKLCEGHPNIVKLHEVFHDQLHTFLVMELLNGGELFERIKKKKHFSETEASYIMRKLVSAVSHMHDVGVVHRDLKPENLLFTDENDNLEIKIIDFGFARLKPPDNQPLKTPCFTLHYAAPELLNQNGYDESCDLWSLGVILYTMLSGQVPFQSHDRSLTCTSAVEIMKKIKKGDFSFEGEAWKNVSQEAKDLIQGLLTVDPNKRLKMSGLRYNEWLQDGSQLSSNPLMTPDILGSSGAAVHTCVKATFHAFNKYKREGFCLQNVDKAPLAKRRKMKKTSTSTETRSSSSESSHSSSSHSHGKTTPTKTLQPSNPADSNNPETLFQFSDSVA

In the case of `C=C(C)[C@H]1CC=C(C)C(=O)C1` [S-carvone], the remaining binding at 100 µM on TLK1 worked out at 59%; on MAST1, 75%; at FGFR3, 75%; at EGFR(T790M), 64%; on CAMK1D, 83%; on ACVR2B it was 75%. In addition, the remaining binding at 100 µM on ULK1 is 100%; at STK39, 80%; on ACVR1 it was 89%; at SGK2 it was 68%; at PIP5K2C it was 88%; on CLK2 it was 60%. In addition, the remaining binding at 100 µM turned out to be 72% in assay [1]; 62% on EPHB3; 50% on LKB1; 72% on MINK; 84% in assay [2]; 71% at CDK4. The figures for the remaining binding at 100 µM (at KIT(D816H); in assay [3]; on MLCK) were 46%, 65% and 98%, respectively.
